Reference: patent publication US9273043B2, “TRPV1 antagonists including dihydroxy substituent and uses thereof” (Purdue Pharma L.P., priority 2011, dated 2016)
Marks after values point to notes of the source that are not given here.

Tested on: MIA-induced osteoarthritis pain
Test: MIA-induced osteoarthritis model, weight bearing difference (WBD) test
Format: in vivo
Details: rat MIA
From the text: Osteoarthritis Pain: To assess the actions of a Compound of Formula (I) for the treatment or prevention of osteoarthritis pain, the rat monosodium iodo-acetate (MIA, i.e., sodium 2-iodoacetate) induced osteoarthritis model was used. Intra-articular injection of MIA causes joint degeneration characterized by osteolysis and swelling, with displacement of the patella, and reductions in bone mineral content and bone mineral density (Pomonis et al., “Development and pharmacological characterization of a rat model of osteoarthritis pain,” Pain 114: 339-346 (2005)). Under isoflurane anaesthesia, an intra-articular injection of 2 mg of MIA (Sigma-Aldrich) in 50 μl of saline was administered through the infrapatellar ligament of the knee joint of the right hind leg of the male, 6 week old Crl:CD(SD) rats. Control rats received an intra-articular injection of 50 μl of saline into the knee joint of the right hind leg. The left knee joint of all rats was untreated. […] Thus, in the assessment for osteoarthritis pain relief through gripping capability determinations, the 24 hour time point was the start of the next day when drug-in-vehicle was again orally administered (24 hours after the prior administration) for certain dosages. […] Weight Bearing Difference Test as an Assessment of Osteoarthritis Related Pain: The weight bearing difference test provides an accepted assessment of the efficacy of clinically useful analgesic drugs with respect of osteoarthritis related pain (see Pomonis et al. (2005)). WBD was assessed using a Linton Incapacitance Tester (Linton Instrumentation, Norfolk, UK). Rats were placed on the apparatus so that they were standing on their hind legs, and allowed to acclimate to the apparatus. When stationary, the weight born on each leg was measured over a 3s period. Three readings were taken for each rat at each time point; the average of the three readings was used for data analysis. WBD was expressed as “% WR”, i.e., the percentage of weight born on the MIA-injected right hind leg, using the following formula: [formula] where WR is the weight on the right hind leg and WL is the weight on the left (untreated) hind leg. […] The “% WRR”, i.e., the percentage reversal of the % WR impediment occurring post-MIA injection, was determined for each dosage at each time point using the following formula: [formula] where (% WR)Post-Drug is the % WR determined at each post-oral-administration time-point for each dose of each administered substance, (% WR)Pre-Drug is the % WR determined pre-oral-administration of each administered substance, and (% WR)Control Rat is the % WR determined for control rats (receiving the saline injection into the right hind leg knee joint). With the exception of the controls (i.e., celecoxib, vehicle) where the student's t-test was used, Dunnett's test was conducted for the % WRR.

CC1CN(c2ncc(C(O)CO)cc2F)CCN1C(=O)Nc1nc2cc(F)ccc2s1.O=C(O)C=CC(=O)O (stereo not shown)
minimal effective dose: 1 mg/kg
% WRR [mean] (oral 0.3 mg/kg, 1 h after administration): 4.3%
% WRR [mean] (oral 0.3 mg/kg, 3 h after administration): 12.5%
% WRR [mean] (oral 0.3 mg/kg, 5 h after administration): 7.1%
% WRR [mean] (oral 0.3 mg/kg, 7 h after administration): 5.0%
% WRR [mean] (oral 0.3 mg/kg, 24 h after administration): 0%
% WRR [mean] (oral 1 mg/kg, 1 h after administration): 15.2%
% WRR [mean] (oral 1 mg/kg, 3 h after administration): 28.8** %
% WRR [mean] (oral 1 mg/kg, 3 h after administration, listed as product prepared with Compound A155(a) and fumaric acid): 28.8%
% WRR [mean] (oral 1 mg/kg, 5 h after administration): 16.1** %
% WRR [mean] (oral 1 mg/kg, 5 h after administration, listed as product prepared with Compound A155(a) and fumaric acid): 16.1%
% WRR [mean] (oral 1 mg/kg, 7 h after administration): 8.8* %
% WRR [mean] (oral 1 mg/kg, 7 h after administration, listed as product prepared with Compound A155(a) and fumaric acid): 8.8%
% WRR [mean] (oral 1 mg/kg, 24 h after administration): 2.1%
% WRR [mean] (oral 3 mg/kg, 1 h after administration): 20.9** %
% WRR [mean] (oral 3 mg/kg, 3 h after administration): 34.5** %
% WRR [mean] (oral 3 mg/kg, 5 h after administration): 23.4** %
% WRR [mean] (oral 3 mg/kg, 7 h after administration): 9.5* %
% WRR [mean] (oral 3 mg/kg, 24 h after administration): 3.7%
% WRR [mean] (oral 10 mg/kg, 1 h after administration): 33.3** %
% WRR [mean] (oral 10 mg/kg, 3 h after administration): 44.1** %
% WRR [mean] (oral 10 mg/kg, 5 h after administration): 35.0** %
% WRR [mean] (oral 10 mg/kg, 7 h after administration): 22.8** %
% WRR [mean] (oral 10 mg/kg, 24 h after administration): 9.8%
% WRR [mean] (oral 20 mg/kg, 1 h after administration): 41.9** %
% WRR [mean] (oral 20 mg/kg, 1 h after administration, listed as product prepared with Compound A155(a) and fumaric acid): 41.9%
% WRR [mean] (oral 20 mg/kg, 3 h after administration): 56.9** %
% WRR [mean] (oral 20 mg/kg, 3 h after administration, listed as product prepared with Compound A155(a) and fumaric acid): 56.9%
% WRR [mean] (oral 20 mg/kg, 5 h after administration): 46.9** %
% WRR [mean] (oral 20 mg/kg, 5 h after administration, listed as product prepared with Compound A155(a) and fumaric acid): 46.9%
% WRR [mean] (oral 20 mg/kg, 7 h after administration): 35.6** %
% WRR [mean] (oral 20 mg/kg, 7 h after administration, listed as product prepared with Compound A155(a) and fumaric acid): 35.6%
% WRR [mean] (oral 20 mg/kg, 24 h after administration): 19.8** %
% WRR [mean] (oral 20 mg/kg, 24 h after administration, listed as product prepared with Compound A155(a) and fumaric acid): 19.8%
